In patent publication US9920014B2, “Selective inhibition of bacterial topoisomerase I” (THE FLORIDA INTERNATIONAL BOARD OF TRUSTEES MODESTO A. …, priority 2013, dated 2018):
≈ marks a conversion by molar mass, not a printed value. Where “and” joins values, the source holds several entries; their conditions need not be identical. Identical values can stand only once. Like-named read-outs stand apart in the source and are kept apart here.

What was measured:
[1] = test system: Escherichia coli ATCC 25922; assay: MIC by microbroth dilution, E. coli 25922; assay type: cell-based; settings: for MIC: Escherichia coli, ATCC25922, 24 h 37° C., read-out: MIC S3 = E. coli 25922; for MIC S3 = E. coli 25922: 24 h 37° C.
Protocol: (§1) Minimum Inhibitory Concentration (MIC) Determination:
(§2) Bacteria used in this study were Staphylococcus aureus ATCC 29213, Escherichia coli ATCC 25922, Escherichia coli K12, Staphylococcus aureus ATCC 33591, Pseudomonas aeruginosa ATCC 27853, and Enterococcus faecalis ATCC 29212. All compounds were tested by the microbroth dilution method following Clinical and Laboratory Standards Institute guidelines. Briefly, Mueller-Hinton broth (Difco Laboratories, Becton Dickinson) was inoculated with each organism and incubated at 37° C. with shaking to establish logarithmic growth. Following incubation, each culture was pelleted by centrifugation (3,500×g for 5 min) and resuspended in 0.85% sterile saline solution to an optical density at 625 nm of 0.1. Samples were tested in triplicate using 96 well microplates (Corning Costar Corp. Cambridge, Mass.), yielding final bacterial concentrations of 5×10^5 CFU/mL, and incubated for 24 h at 37° C. Following incubation, optical densities of each well were determined with a μQuant microplate spectrophotometer (BioTek Instruments, Inc., Winooski, Vt.) at 625 nm.

dA60.dT60 duplex = assay: UV thermal denaturation of AT rich DNA duplex; assay type: binding; settings: ligand 10 μM, DNA 1 μM/duplex, 10 mM sodium cacodylate, 0.1 mM EDTA, 100 mM NaCl, pH 7.0; for ΔTm (thermal stabilization): duplex alone 62.5° C.
Protocol: Nucleic acids were purchased from Integrated DNA Technologies (Coraville, Iowa). The concentration of the nucleic acid was determined using the extinction coefficient provided by the supplier. The DNA duplex was prepared by heating the dA60 and dT60 in equimolar ratio in buffer 10 mM sodium cacodylate, 0.1 mM EDTA and 100 mM NaCl at pH 7.0 at 95° C. for 15 minutes and then slowly allowing it to cool back to room temperature. After two days of incubation, the duplex formation was checked by UV thermal denaturation experiments. The stock solution was stored at 4° C. and diluted to desired concentrations as required.
Ultra Violet (UV) Thermal Denaturation Experiments:
All UV spectra were obtained on a 12 cell holder Cary 1E UV-Vis spectrophotometer equipped with temperature controller. Quartz cells with 1 cm path length were used for all the experiments. Spectrophotometer stability and wavelength alignment were checked prior to initiation of each thermal denaturation experiment. For all experiments, the samples were prepared by diluting a stock sample. The melting of DNA with and without the ligand was performed at a heating rate of 0.2° C./min. Samples were brought back to 20° C. after the experiment. All UV melting experiments were monitored at 260 nm. For the Tm determinations, derivatives were used. Data points were recorded every 1.0° C. The DNA concentration was 1 μM/duplex while the ligand concentration was 10 μM. All ligand solutions were prepared in dimethyl sulfoxide (DMSO) as concentrated stock solution (6-10 mM) and diluted to desired concentrations in buffer.
Bisbenzimidazoles are known to bind to the minor groove of AT rich DNA. The UV thermal denaturation experiments of the synthesized ligands were carried out with an AT rich DNA duplex. A 60 mer B-DNA duplex that was prepared by mixing equimolar amounts of a 60 mer homoadenine with a 60 mer homothymine polymer.

[2] = test system: Pseudomonas aeruginosa ATCC 27853; assay: MIC by microbroth dilution, P. aeruginosa 27853; assay type: cell-based; settings: for MIC: Pseudomonas aeruginosa, ATCC27853, 24 h 37° C., read-out: MIC S4 = P. aeruginosa 27853; for MIC S4 = P. aeruginosa 27853: 24 h 37° C.
Protocol: as §1, §2

[3] = test system: Staphylococcus aureus ATCC 29213; assay: MIC by microbroth dilution, S. aureus 29213; assay type: cell-based; settings: for MIC: Staphylococcus aureus, ATCC29213, 24 h 37° C., read-out: MIC S1 = S. aureus 29213; for MIC S1 = S. aureus 29213: 24 h 37° C.
Protocol: as §1, §2

[4] = test system: Staphylococcus aureus ATCC 33591; assay: MIC by microbroth dilution, S. aureus 33591; assay type: cell-based; settings: for MIC: Staphylococcus aureus, ATCC33591, 24 h 37° C., read-out: MIC S2 = S. aureus 33591; for MIC S2 = S. aureus 33591: 24 h 37° C.
Protocol: as §1, §2

[5] = test system: Enterococcus faecalis ATCC 29212; assay: MIC by microbroth dilution, E. faecalis 29212; assay type: cell-based; settings: for activity against E. faecalis 29212 (in words): comment on Table 4; for MIC: Enterococcus faecalis, ATCC29212, read-out: MIC S6 = E. faecalis 29212; for MIC / MIC S6 = E. faecalis 29212: microbroth dilution, 24 h 37° C.
Protocol: as §1, §2

DU 145 cell line = assay: Cytotoxicity, sulforhodamine B assay; assay type: cell-based; settings: for IC50: 48 h treatment, SRB stain, read-out: IC50 against DU-145
Protocol: Cytotoxicity Experiments:
The DU 145 cell line was cultured according to ATCC protocols. Cells were harvested using trypsin-EDTA solution and counted using trypan blue exclusion. Cells were seeded at a volume of 100 μl/well in the wells of tissue culture treated 96 well plates at a density of […] per well. Seeded 96 well plates were returned to incubator (37° C., 5% CO2) for twenty-four hours to resume exponential growth.
Cell lines were then treated with 100 μl of each test compound or cisplatin in triplicate. The final concentrations of each treatment were: 20, 10, 5, 2.5, 1.25, 0.625 and 0.0625 μM. Each plate also contained wells containing untreated cells and media only as controls. After receiving treatments, the 96 well plates were returned to incubator (37° C., 5% CO2) for forty-eight hours.
After forty-eight hours of treatment, the treated plates were fixed with trichloroacetic acid and stained with sulforhodamine B using a modified version of the protocol described by Skehan et al. In short, 50 μl of cold 80% TCA was added to each well, at a final concentration of 16% TCA, and plates were incubated at 4° C. for one hour. The media and TCA solution was discarded and plates were washed four times using room temperature tap water. Plates were allowed to air dry overnight. Plates were stained with the addition of 70 μl/well of […] SRB in 1% (v/v) acetic acid solution. Samples were stained for fifteen minutes and then stain was discarded. Plates were then washed four times with 1% (v/v) acetic acid solution to remove unbound stain and allowed to air dry overnight at room temperature. Finally, SRB stain was solubilized by adding 150 μl of 10 mM unbuffered Tris base to each well. The absorbance of each samples at 560 nm was recorded using a Tecan plate reader and the IC50 was determined using Origin 4.0 software. Each study was completed in duplicate.

[6] = target: human DNA topoisomerase II (Homo sapiens, UniProt P11388); assay: Inhibition assay against human DNA topoisomerase II (plasmid relaxation, agarose gel); assay type: biochemical; settings: for inhibition of human DNA topoisomerase II activities at 50 μM: 50 μM compound; for IC50: 4 units enzyme, supercoiled pBAD-GFPuv, 30 min 37° C., read-out: IC50 hTopo II
Sequence of human DNA topoisomerase II (P11388 whole entry): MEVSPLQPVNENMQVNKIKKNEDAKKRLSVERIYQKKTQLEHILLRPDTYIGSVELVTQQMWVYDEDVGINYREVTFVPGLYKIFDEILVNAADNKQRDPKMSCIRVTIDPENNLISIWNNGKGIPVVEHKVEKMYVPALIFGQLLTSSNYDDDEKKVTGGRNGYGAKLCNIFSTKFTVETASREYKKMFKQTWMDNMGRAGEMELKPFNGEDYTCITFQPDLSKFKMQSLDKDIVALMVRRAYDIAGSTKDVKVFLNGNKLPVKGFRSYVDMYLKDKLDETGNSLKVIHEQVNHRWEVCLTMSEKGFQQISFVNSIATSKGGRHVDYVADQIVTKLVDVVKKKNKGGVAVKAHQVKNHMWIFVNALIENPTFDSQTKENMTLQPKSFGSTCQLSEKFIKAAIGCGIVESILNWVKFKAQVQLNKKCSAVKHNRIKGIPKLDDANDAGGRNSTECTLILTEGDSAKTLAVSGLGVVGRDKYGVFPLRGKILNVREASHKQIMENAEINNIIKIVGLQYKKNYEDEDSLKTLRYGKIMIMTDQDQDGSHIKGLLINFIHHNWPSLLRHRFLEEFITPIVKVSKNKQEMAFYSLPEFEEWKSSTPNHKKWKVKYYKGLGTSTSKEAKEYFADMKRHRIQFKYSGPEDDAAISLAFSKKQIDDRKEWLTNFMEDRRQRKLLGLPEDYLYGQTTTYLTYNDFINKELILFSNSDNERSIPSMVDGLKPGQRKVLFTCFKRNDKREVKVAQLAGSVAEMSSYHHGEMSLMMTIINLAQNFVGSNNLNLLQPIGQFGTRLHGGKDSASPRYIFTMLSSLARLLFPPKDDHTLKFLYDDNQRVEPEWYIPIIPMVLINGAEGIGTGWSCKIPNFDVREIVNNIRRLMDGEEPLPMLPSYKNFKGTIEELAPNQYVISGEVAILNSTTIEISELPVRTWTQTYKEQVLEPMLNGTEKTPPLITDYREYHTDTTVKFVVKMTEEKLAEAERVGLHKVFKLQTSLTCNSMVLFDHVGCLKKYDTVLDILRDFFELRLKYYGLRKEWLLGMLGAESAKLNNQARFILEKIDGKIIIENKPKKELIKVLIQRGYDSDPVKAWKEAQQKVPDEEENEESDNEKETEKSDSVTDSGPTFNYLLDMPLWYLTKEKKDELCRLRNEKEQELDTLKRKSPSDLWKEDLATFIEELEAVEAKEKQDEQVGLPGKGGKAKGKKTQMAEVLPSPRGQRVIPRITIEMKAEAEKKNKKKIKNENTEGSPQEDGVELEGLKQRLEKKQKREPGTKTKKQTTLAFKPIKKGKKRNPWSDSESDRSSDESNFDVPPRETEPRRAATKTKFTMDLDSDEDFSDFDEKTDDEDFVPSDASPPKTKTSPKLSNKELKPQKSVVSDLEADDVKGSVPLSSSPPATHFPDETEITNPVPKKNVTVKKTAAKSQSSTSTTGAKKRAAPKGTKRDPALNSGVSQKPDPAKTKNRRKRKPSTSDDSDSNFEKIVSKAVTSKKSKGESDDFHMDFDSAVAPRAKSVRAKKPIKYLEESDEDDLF
Protocol: Inhibition Assays Against Human DNA Topoisomerase II:
The reaction mixture (25 μl) contained 20 mM Tris-HCl at pH 7.9, 50 mM KAc, 10 mM Mg(Ac)2, 1 mM DTT, 1 μg/mL BSA, 200 ng supercoiled plasmid pBAD-GFPuv, 4 units of Human topoisomerase II, and one of the compounds at a final concentration that ranges from 5 to 50 μM. All components were assembled on ice and incubated for 30 minutes at 37° C. After the incubation, the reactions were terminated by extraction with an equal volume of phenol. The topological state of the DNA samples was analyzed with 1% agarose gel electrophoresis in 1×TAE buffer, pH 7.8. Following electrophoresis, the agarose gel was stained with Ethidium Bromide, destained, and photographed under UV light. The intensity of DNA topoisomers was determined using KODAK 1D Image Analysis Software. The percentage of (−) supercoiled DNA was calculated from a comparison of the intensity of the (−) supercoiled band with the total intensity of all DNA topoisomers. The IC50 was calculated as the amount of the drug for which 50% of the DNA was in a (−) supercoiled state.

| Structure (SMILES) | melting point [°C] | MIC [1] [µg/mL] | Tm (dA60.dT60 duplex) [°C] | ΔTm (thermal stabilization) (dA60.dT60 duplex) | MIC [2] [µg/mL] | MIC [3] [µg/mL] | MIC [4] [µg/mL] | activity against E. faecalis 29212 (in words) [5] | IC50 (DU 145 cell line; Homo sapiens, DU-145) [µM] | MIC [5] [µg/mL] | MIC S3 = E. coli 25922 [1] [µg/mL] | MIC S4 = P. aeruginosa 27853 [2] [µg/mL] | MIC S1 = S. aureus 29213 [3] | MIC S2 = S. aureus 33591 [4] [µg/mL] | MIC S6 = E. faecalis 29212 [5] [µg/mL] | inhibition of human DNA topoisomerase II activities at 50 μM [6] | IC50 [6] [µM] | ΔTm (thermal stabilization) (dA60.dT60 duplex; listed as Hoechst 33242) [°C] | IC50 (DU 145 cell line) [µM] | cytotoxicity relative to Hoechst 33242 (DU 145 cell line; DU-145, 48 h) |
| --- | --- | --- | --- | --- | --- | --- | --- | --- | --- | --- | --- | --- | --- | --- | --- | --- | --- | --- | --- | --- |
| C#CCOCCCCOc1ccc(-c2nc3ccc(-c4nc5ccc(N6CCN(C)CC6)cc5[nH]4)cc3[nH]2)cc1 [DPA 154, 6-(4-methylpiperazin-1-yl)-2′-(4-(4-(prop-2-ynyloxy)butoxy)phenyl)-1H,3′H-2,5′-bibenzo[d]imidazole] | 150 to 155 | 8 to 16 (≈ 15 to 29.9 µM) | 85.9 | 23.4 °C | 16 (≈ 29.9 µM) | 2 to 4 (≈ 3.74 to 7.48 µM) | 2 to 4 (≈ 3.74 to 7.48 µM) | markedly improved activity | 2.79 ± 0.13 |  |  |  |  |  |  |  |  |  |  |  |
| C#CCCCCCCCCCOc1ccc(-c2nc3ccc(-c4nc5ccc(N6CCN(C)CC6)cc5[nH]4)cc3[nH]2)cc1 [DPA 153, 6-(4-methylpiperazin-1-yl)-2′-(4-(undec-10-ynyloxy)phenyl)-1H,3′H-2,5′-bibenzo[d]imidazole] | 170 to 175 |  | 70.5 | 8 °C |  |  |  |  | > 10 | 16 to 32 (≈ 27.8 to 55.7 µM) |  |  |  |  |  |  |  |  |  |  |
| CN1CCN(c2ccc3[nH]c(-c4ccc5[nH]c(-c6ccc(O)cc6)nc5c4)nc3c2)CC1 [Hoechst 33258, reference compound] |  |  | 87.1 | ~24 °C and 24.6 °C |  |  |  | not good inhibitors |  |  | 16 (≈ 37.7 µM) | 16 (≈ 37.7 µM) | ≥32^ ^ μg/ml | 16 to 32 | 16 to 32 | completely inhibit | 28.9 ± 4.45 |  |  |  |
| C#CCOc1ccc(-c2nc3ccc(-c4nc5ccc(N6CCN(C)CC6)cc5[nH]4)cc3[nH]2)cc1 [DPA 151, 6-(4-methylpiperazin-1-yl)-2′-(4-(prop-2-ynyloxy)phenyl)-1H,3′H-2,5′-bibenzo[d]imidazole] |  | 8 (≈ 17.3 µM) | 85.4 | 22.9 °C and 23.9 °C |  | 2 to 4 (≈ 4.32 to 8.65 µM) | 2 to 4 (≈ 4.32 to 8.65 µM) |  | 3.24 ± 0.71 | 16 to 32 (≈ 34.6 to 69.2 µM) |  |  |  |  |  | partially inhibit | 51.6 ± 2.5 |  |  |  |
| CCOc1ccc(-c2nc3ccc(-c4nc5ccc(N6CCN(C)CC6)cc5[nH]4)cc3[nH]2)cc1 [Hoechst 33342, reference compound] |  |  | 86.6 | ~24 °C |  |  |  | not good inhibitors |  |  | 8 to 16 | 16 (≈ 35.4 µM) | 2 to 4 µg/mL | 2 to 4 | 16 to 32 |  |  | 24.1 | 4.25 |  |
| C#CCCCCOc1ccc(-c2nc3ccc(-c4nc5ccc(N6CCN(C)CC6)cc5[nH]4)cc3[nH]2)cc1 [DPA 152, 2′-(4-(hex-5-ynyloxy)phenyl)-6-(4-methylpiperazin-1-yl)-1H,3′H-2,5′-bibenzo[d]imidazole] | 210 to 220 | 8 to 16 (≈ 15.9 to 31.7 µM) | 83.4 | 20.9 °C | 16 (≈ 31.7 µM) | 2 to 4 (≈ 3.96 to 7.93 µM) | 2 to 4 (≈ 3.96 to 7.93 µM) | markedly improved activity | 2.12 ± 0.46 | 4 (≈ 7.93 µM) |  |  |  |  |  |  |  |  |  | nearly twice as toxic as Hoechst 33242 |
